Source: US20240050428A1 (Cullgen (Shanghai), Inc., priority 2020, published 2024)
pIC50: −log10 of the molar value. Like-named read-outs stand apart in the source and are kept apart here.

How the values were obtained:
[1] = system: MV4;11 cells; experiment: Cell viability assay (CellTiter-Glo) in MV4;11 cells, alone or with gilteritinib; format: cell-based; details: Homo sapiens, MV4;11 cells, CellTiter-Glo, read-out: MV4
[2] = system: MOLM-13 cells; experiment: Cell viability assay (CellTiter-Glo) in MOLM-13 cells, alone or with gilteritinib; format: cell-based; details: Homo sapiens, MOLM-13 cells, CellTiter-Glo
[3] = MV4-11, 72 h, compound alone (without gilteritinib), three days, 11 IC50
[4] = MV4-11, 72 h, with gilteritinib 10 nM, three days, 11 IC50 gilteritinib
[5] = MOLM-13, 72 h, compound alone (without gilteritinib), three days, read-out: MOLM-13 IC50
[6] = MOLM-13, 72 h, with gilteritinib 20 nM, three days, read-out: MOLM-13 IC50 gilteritinib
[7] = 72 h, compound alone (without gilteritinib), three days, 11 IC50
[8] = 72 h, compound alone (without gilteritinib), three days, read-out: MOLM-13 IC50
[9] = MV4-11, 72 h, compound with gilteritinib 10 nM, three days, 11 IC50 gilteritinib
[10] = MOLM-13, 72 h, compound with gilteritinib 20 nM, three days, read-out: MOLM-13 IC50 gilteritinib

Row | pIC50 [1, 3] | pIC50 [1, 4] | pIC50 [2, 5] | pIC50 [2, 6] | pIC50 [1, 9] | pIC50 [2, 10] | Compound | further results
1 | < 6.00 | 6.00 to 7.00 | < 6.00 | 6.00 to 7.00 | – | – | O=C1CCC(N2C(=O)c3ccc(NCCCC4CCCC(n5cc(-c6cnc7ccccc7n6)cn5)C4)cc3C2=O)C(=O)N1 (stereo not drawn) [GS-112, 2-(2,6-Dioxopiperidin-3-yl)-5-((3-(3-(4-(quinoxalin-2-yl)-1H-pyrazol-1-yl)cyclohexyl)propyl)amino)isoindoline-1,3-dione] | –
2 | < 6.00 | < 6.00 | < 6.00 | < 6.00 | – | – | O=C(CC1CCC(N2CCC(n3cc(-c4cnc5ccccc5n4)cn3)CC2)CC1)NCc1ccc2c(c1)CN(C1CCC(=O)NC1=O)C2=O (stereo not drawn) [GS-089, N-((2-(2,6-dioxopiperidin-3-yl)-1-oxoisoindolin-5-yl)methyl)-2-(4-(4-(4-(quinoxalin-2-yl)-1H-pyrazol-1-yl)piperidin-1-yl)cyclohexyl)acetamide] | –
3 | 6.00 to 7.00 | 7.00 to 8.00 | 6.00 to 7.00 | 7.00 to 8.00 | – | – | O=C1CCC(N2C(=O)c3ccc(NCCC[C@H]4C[C@H](n5cc(-c6cnc7ccc(CN8CCNCC8)cc7n6)cn5)C4)cc3C2=O)C(=O)N1 (stereo partly drawn) [GS-209, 2-(2,6-Dioxopiperidin-3-yl)-5-((3-(trans-3-(4-(7-(piperazin-1-ylmethyl)quinoxalin-2-yl)-1H-pyrazol-1-yl)cyclobutyl)propyl)amino)isoindoline-1,3-dione] | –
4 | 6.00 to 7.00 | > 8.00 | < 6.00 | > 8.00 | – | – | O=C1CCC(N2C(=O)c3ccc(NCCCCCC(=O)N4CCC(n5cc(-c6ccc7cccc(Br)c7n6)cn5)CC4)cc3C2=O)C(=O)N1 (stereo not drawn) [GS-052, 5-((6-(4-(4-(8-Bromoquinolin-2-yl)-1H-pyrazol-1-yl)piperidin-1-yl)-6-oxohexyl)amino)-2-(2,6-dioxopiperidin-3-yl)isoindoline-1,3-dione] | –
5 | 7.00 to 8.00 | – | 6.00 to 7.00 | – | > 8.00 | > 8.00 | O=C1CCC(N2C(=O)c3ccc(NCCCCCC(=O)N4CCC(n5cc(-c6cnc7cccc(C8=CCNCC8)c7n6)cn5)CC4)cc3C2=O)C(=O)N1 (stereo not drawn) [GS-480, 2-(2,6-dioxopiperidin-3-yl)-5-((6-oxo-6-(4-(4-(8-(1,2,3,6-tetrahydropyridin-4-yl)quinoxalin-2-yl)-1H-pyrazol-1-yl)piperidin-1-yl)hexyl)amino)isoindoline-1,3-dione] | –
6 | 7.00 to 8.00 | 7.00 to 8.00 | 7.00 to 8.00 | > 8.00 | – | – | Cc1nc2ccccc2nc1-c1cnn(CCCCCCCc2ccc3c(c2)C(=O)N(C2CCC(=O)NC2=O)C3)c1 (stereo not drawn) [GS-134, 3-(6-(7-(4-(3-Methylquinoxalin-2-yl)-1H-pyrazol-1-yl)heptyl)-1-oxoisoindolin-2-yl)piperidine-2,6-dione] | –
7 | 7.00 to 8.00 | – | 6.00 to 7.00 | – | 7.00 to 8.00 | > 8.00 | Cc1cccc(-c2cnn([C@H]3C[C@H](CCCNc4ccc5c(c4)C(=O)N(C4CCC(=O)NC4=O)C5=O)C3)c2)n1 (stereo partly drawn) [GS-584, 2-(2,6-Dioxopiperidin-3-yl)-5-((3-(trans-3-(4-(6-methylpyridin-2-yl)-1H-pyrazol-1-yl)cyclobutyl)propyl)amino)isoindoline-1,3-dione] | –
8 | 7.00 to 8.00 | 7.00 to 8.00 | 7.00 to 8.00 | > 8.00 | – | – | O=C1CCC(N2C(=O)c3ccc(NCCCCCC(=O)N4CCC(n5cc(C6CCCCC6)cn5)CC4)cc3C2=O)C(=O)N1 (stereo not drawn) [GS-049, 5-((6-(4-(4-Cyclohexyl-1H-pyrazol-1-yl)piperidin-1-yl)-6-oxohexyl)amino)-2-(2,6-dioxopiperidin-3-yl)isoindoline-1,3-dione] | –
9 | > 8.00 | – | > 8.00 | – | > 8.00 | > 8.00 | O=C1CCC(N2C(=O)c3ccc(NCCCCCC(=O)N4CCC(n5cc(-c6cnc7ccc(N8CCOCC8)cc7n6)cn5)CC4)cc3C2=O)C(=O)N1 (stereo not drawn) [GS-528, 2-(2,6-Dioxopiperidin-3-yl)-5-((6-(4-(4-(7-morpholinoquinoxalin-2-yl)-1H-pyrazol-1-yl)piperidin-1-yl)-6-oxohexyl)amino)isoindoline-1,3-dione] | –

More lines, now with the values behind:

Row | Compound | pIC50 [1, 3] | pIC50 [1, 4] | pIC50 [2, 5] | pIC50 [2, 6] | pIC50 [1, 9] | pIC50 [2, 10] | further results
10 | O=C1CCC(N2C(=O)c3ccc(NCCCc4cccc(N5CCC(c6ccccc6)CC5)c4F)cc3C2=O)C(=O)N1 (stereo not drawn) [GS-507, 2-(2,6-Dioxopiperidin-3-yl)-5-((3-(2-fluoro-3-(4-phenylpiperidin-1-yl)phenyl)propyl)amino)isoindoline-1,3-dione] | – | – | – | – | – | – | pIC50 [1, 7]: < 6.00; pIC50 ([1]; 72 h, compound with gilteritinib 10 nM, three days, 11 IC50 gilteritinib): 6.00 to 7.00; pIC50 [2, 8]: < 6.00; pIC50 ([2]; 72 h, compound with gilteritinib 20 nM, three days, read-out: MOLM-13 IC50 gilteritinib): 7.00 to 8.00
11 | O=C1CCC(N2C(=O)c3ccc(NC[C@H]4C[C@H](n5cc(-c6cccc(NC7CCOCC7)n6)c(C6CC6)n5)C4)cc3C2=O)C(=O)N1 (stereo partly drawn) [GS-441, 5-(((trans-3-(3-cyclopropyl-4-(6-((tetrahydro-2H-pyran-4-yl)amino)pyridin-2-yl)-1H-pyrazol-1-yl)cyclobutyl)methyl)amino)-2-(2,6-dioxopiperidin-3-yl)isoindoline-1,3-dione] | < 6.00 | – | 7.00 to 8.00 | – | 7.00 to 8.00 | 6.00 to 7.00 | –
12 | O=C1CCC(N2C(=O)c3ccc(NC[C@H]4C[C@H](n5cc(-c6cccc(NC7CC(O)C7)n6)c(C6CC6)n5)C4)cc3C2=O)C(=O)N1 (stereo partly drawn) [GS-269, 5-(((trans-3-(3-Cyclopropyl-4-(6-((3-hydroxycyclobutyl)amino)pyridin-2-yl)-1H-pyrazol-1-yl)cyclobutyl)methyl)amino)-2-(2,6-dioxopiperidin-3-yl)isoindoline-1,3-dione] | < 6.00 | 6.00 to 7.00 | < 6.00 | < 6.00 | – | – | –
13 | Cc1cccc(-c2cn([C@H]3C[C@H](CNc4ccc5c(c4)C(=O)N(C4CCC(=O)NC4=O)C5=O)C3)nc2C(F)F)n1 (stereo partly drawn) [GS-444, 5-(((trans-3-(3-(difluoromethyl)-4-(6-methylpyridin-2-yl)-1H-pyrazol-1-yl)cyclobutyl)methyl)amino)-2-(2,6-dioxopiperidin-3-yl)isoindoline-1,3-dione] | 7.00 to 8.00 | – | 7.00 to 8.00 | – | > 8.00 | > 8.00 | –
14 | O=C1CCC(N2C(=O)c3ccc(NC[C@H]4C[C@H](n5cc(-c6nccc7[nH]ncc67)c(C6CC6)n5)C4)cc3C2=O)C(=O)N1 (stereo partly drawn) [GS-299, 5-(((trans-3-(3-Cyclopropyl-4-(1H-pyrazolo[4,3-c]pyridin-4-yl)-1H-pyrazol-1-yl)cyclobutyl)methyl)amino)-2-(2,6-dioxopiperidin-3-yl)isoindoline-1,3-dione] | > 8.00 | > 8.00 | 7.00 to 8.00 | > 8.00 | – | – | –
15 | O=C1CCC(N2C(=O)c3ccc(C4CCN(CCCn5cc(-c6cnc7ccccc7n6)cn5)CC4)cc3C2=O)C(=O)N1 (stereo not drawn) [GS-358, 2-(2,6-Dioxopiperidin-3-yl)-5-(1-(3-(4-(quinoxalin-2-yl)-1H-pyrazol-1-yl)propyl)piperidin-4-yl)isoindoline-1,3-dione] | – | – | – | – | – | – | pIC50 [1, 7]: < 6.00; pIC50 ([1]; 72 h, with gilteritinib 10 nM, three days, 11 IC50 gilteritinib): < 6.00; pIC50 [2, 8]: < 6.00; pIC50 ([2]; 72 h, with gilteritinib 20 nM, three days, read-out: MOLM-13 IC50 gilteritinib): < 6.00
16 | Cn1cccc(-c2cn([C@H]3C[C@H](CNc4ccc5c(c4)C(=O)N(C4CCC(=O)NC4=O)C5=O)C3)nc2C2CC2)c1=O (stereo partly drawn) [GS-465, 5-(((trans-3-(3-cyclopropyl-4-(1-methyl-2-oxo-1,2-dihydropyridin-3-yl)-1H-pyrazol-1-yl)cyclobutyl)methyl)amino)-2-(2,6-dioxopiperidin-3-yl)isoindoline-1,3-dione] | < 6.00 | – | < 6.00 | – | 6.00 to 7.00 | 7.00 to 8.00 | –
17 | O=C1CCC(N2Cc3cc(CNC(=O)C(F)(F)CCC(=O)N4CCC(n5cc(-c6cnc7cccc(Br)c7n6)cn5)CC4)ccc3C2=O)C(=O)N1 (stereo not drawn) [GS-007, 5-(4-(4-(8-bromoquinoxalin-2-yl)-1H-pyrazol-1-yl)piperidin-1-yl)-N-((2-(2,6-dioxopiperidin-3-yl)-1-oxoisoindolin-5-yl)methyl)-2,2-difluoro-5-oxopentanamide] | – | – | – | – | – | – | pIC50 ([1]; MV4-11, 72 h, with 10 nM gilteritinib, 3 days, 11 IC50 gilteritinib): 8.00; pIC50 ([1]; MV4-11, 72 h, without gilteritinib, 3 days, 11 IC50): 6.77; pIC50 ([2]; MOLM-13, 72 h, with 20 nM gilteritinib, 3 days, read-out: MOLM-13 IC50 gilteritinib): 7.49; pIC50 ([2]; MOLM-13, 72 h, without gilteritinib, 3 days, read-out: MOLM-13 IC50): 6.75
18 | O=C1CCC(N2C(=O)c3ccc(NCCC[C@H]4C[C@H](n5cc(-c6cccc(NC7CCOCC7)n6)cn5)C4)cc3C2=O)C(=O)N1 (stereo partly drawn) [GS-222, 2-(2,6-Dioxopiperidin-3-yl)-5-((3-(trans-3-(4-(6-((tetrahydro-2H-pyran-4-yl)amino)pyridin-2-yl)-1H-pyrazol-1-yl)cyclobutyl)propyl)amino)isoindoline-3-dione] | < 6.00 | 6.00 to 7.00 | < 6.00 | 7.00 to 8.00 | – | – | –
